{"source": "patent EP4116414A1", "about": "(Centre National de la Recherche Scientifique, dated 2023)", "key": {"[1]": {"biological_target": "Bacillus subtilis 168 formate dehydrogenase YjgCD heterodimer, wild type (6his-YjgC, SEQ ID NO: 1; YjgD, SEQ ID NO: 3) (Bacillus subtilis, UniProt O34720)", "conditions": "formate oxidation, benzyl viologen as artificial electron acceptor, 25 mM CHES pH 10, 25°C", "method": "FDH activity was determined using an Avaspec-2048L spectrometer (Avantes), inside an anaerobic glovebox filled with an atmosphere of 100% N2. The experiments were carried out at room temperature (25°C) with stirring.\nFor formate::benzyl viologen OR measurements, the reduction of 17.5 mM benzyl viologen (BV) was monitored at 600 nm (ε600 nm BV^+ = 7.0945 mM^-1 cm^-1) in 25 mM CHES pH 10 after addition of 50 mM sodium formate. One unit of oxidizing activity is defined as the amount of FDH capable of oxidizing 1 µmol of formate par min per mg of enzyme.\nFirst the yjgCD operon was expressed under the control of an inducible promoter and the YjgC protein to which a 6-histidine tag was added at the N-terminus was purified."}, "[2]": {"biological_target": "T1, YjgC 6his-tagged in N-terminal (His-YjgC), Bacillus subtilis 168 (Bacillus subtilis 168, UniProt O34720 1-985)", "T1 construct": "Expressed from the yjgCD operon under a xylose inducible promoter in B. subtilis strain 4088 and purified on Ni-NTA; Carries Mo-bisPGD and Fe-S cofactors; also called 6his-YjgC; catalytic subunit of YjgCD; not shown: N-terminal 6-his tag followed by a TEV cleavage site", "T1 sequence": "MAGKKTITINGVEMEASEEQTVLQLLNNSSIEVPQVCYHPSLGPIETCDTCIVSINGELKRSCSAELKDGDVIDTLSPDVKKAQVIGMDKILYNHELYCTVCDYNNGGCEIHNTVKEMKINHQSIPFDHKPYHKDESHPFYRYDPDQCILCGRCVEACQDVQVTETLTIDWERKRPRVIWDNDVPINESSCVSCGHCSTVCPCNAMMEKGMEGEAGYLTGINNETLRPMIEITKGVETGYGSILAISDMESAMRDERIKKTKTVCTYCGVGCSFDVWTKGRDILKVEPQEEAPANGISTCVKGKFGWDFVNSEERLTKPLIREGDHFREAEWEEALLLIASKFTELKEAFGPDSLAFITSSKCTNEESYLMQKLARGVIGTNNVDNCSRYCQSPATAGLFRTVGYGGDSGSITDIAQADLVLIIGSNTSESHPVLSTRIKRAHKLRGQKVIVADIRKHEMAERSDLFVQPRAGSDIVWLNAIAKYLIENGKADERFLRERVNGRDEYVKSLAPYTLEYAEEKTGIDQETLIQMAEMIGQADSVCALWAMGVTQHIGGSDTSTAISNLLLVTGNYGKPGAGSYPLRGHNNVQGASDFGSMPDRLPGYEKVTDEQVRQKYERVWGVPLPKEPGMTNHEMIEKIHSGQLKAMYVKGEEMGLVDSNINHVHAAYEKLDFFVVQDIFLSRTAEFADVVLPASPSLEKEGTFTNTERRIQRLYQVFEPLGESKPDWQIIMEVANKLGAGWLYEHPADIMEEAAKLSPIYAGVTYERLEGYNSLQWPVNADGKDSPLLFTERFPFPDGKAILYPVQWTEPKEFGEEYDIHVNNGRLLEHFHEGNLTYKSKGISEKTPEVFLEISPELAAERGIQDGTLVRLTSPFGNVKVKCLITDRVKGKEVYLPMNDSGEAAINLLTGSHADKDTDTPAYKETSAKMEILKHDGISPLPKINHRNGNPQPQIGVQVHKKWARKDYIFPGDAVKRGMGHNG", "assay": "Ni-NTA affinity purification of His-YjgC, Coomassie-stained SDS-PAGE"}}}
{"molecule": "formate", "values": [{"measurement": "Kcat", "setting": "[1]; anaerobic, YjgCD heterodimer MW 132 kDa", "value": "96,1 ± 4 s^-1"}, {"measurement": "Km", "setting": "[1]; read-out: KM formate, anaerobic (100% N2)", "value": 5.1, "unit": "mM"}]}
{"molecule": "YjgD protein of Bacillus subtilis 168 (other, Untagged and co-expressed with His-YjgC from the yjgCD operon; Predicted monomeric mass 21.3 kDa; also called partner subunit of YjgCD) MAKAIKRIQKIEVTEEDQRKRDLREIEDALIDHKEAILETLHMLGHMNERGVLPLLRGLFGQGDKVLDILVKKADTEETANTLKNLLLLFGTLGMLDVKQLEPLILKVNAGVASAVEQKNSEEKTGYFDIIRSLKDPEINKSITLLFSFLKGMGQDTKELERTTQPPEHQKHHQEPREKRGMNKRD", "values": [{"measurement": "binding result", "setting": "[2]", "value": "binds"}]}
